Source: patent publication US5922891A, “2-substituted 1,8-dihydroxy-9(10H)-anthracenone pharmaceuticals” (priority 1997, dated 1999)

Columns and labels:
[1] = Deoxyribose degradation as a measure of hydroxyl radical formation; type: biochemical; conditions: 75 μM test compound; controls < 0.1
Procedure: ^c Deoxyribose degradation as a measure of hydroxyl radical formation
Indicated values are μmoles of malondialdehyde per mmole of deoxyribos
released by 75 μM test compound (controls < 0.1).
Degradation of deoxyribose provides a measurement of the amount of hydroxyl radical formation caused by the test compounds. The assay used to determine degradation of 2-deoxy-D-ribose followed generally the procedures of Gutteridge, J. M. C., Biochem. J., 224: 761-767 (1984) and Laughton, et al., Biochem. Pharmacol., 38: 2859-2865 (1989). The following reagents were added to glass tubes in the order and at the final concentrations listed. 0.3 mL kH2 PO4 --KOH buffer, pH 7.4 (30 mM), 0.2 ml double distilled H2 O, 0.2 ml 2-deoxy-D-ribose (2 mM), 0.2 ml FeCl3.6H2 O (0.1 mM), 0.1 ml 2-substituted anthracenone ([…]). Stock solutions of each of the 2-substituted anthracenone compounds were made up fresh before use. Appropriate blanks and controls using an acetronitrile vehicle were performed.
Final reaction volumes were standardized to 1.0 ml. The reaction mixtures were incubated for 2 hours at 37° C. in a shaking water bath at 50 rpm. 1 ml of 2.8% (w/v) trichloracetic acid and 1 ml of 1% (w/v in 0.05 N NaOH) 2-thiobarbituric acid (TBA) were added, and the samples were heated at 100° C. for 15 minutes and then cooled in an ice bath (5 minutes). 2 ml of each reaction mixture was treated with 0.05 ml of 36% (w/v) HCl and 2 of 1-butanol, followed by vigorous shaking with a vortex mixer (Heidolph) for 15 seconds. The organic layer was separated by centrifugation at 3000 rpm (15 minutes) and absorbance at 532 nm was measured against butanol. Calibration was performed using a malondialdehyde (MDA) standard prepared by hydrolysis of 1,1,3,3-tetraethoxypropane (Gutteridge, J. M. C., Anal. Biochem., 69: 518-526 (1975). TBA reactive material was expressed in terms of μmol MDA per μmol deoxyribose. The results of the assay are provided in Table I.

HaCaT cells = experiment: Antiproliferative activity against HaCaT cells (human keratinocyte cell line); type: cell-based; conditions: 48 h, read-out: AA IC50 (antiproliferative activity)
Procedure: HaCaT cells were grown in Dulbecco's modified Eagle's medium (DMEM, No. 041-11954A, Gibco) supplemented with 10% fetal calf serum, penicillin (100 U/mL), and streptomycin (100 μg/mL) in a humidified incubator containing 8% CO2 at 37° C. Cells (2.5·10^4 /1.1 ml per well) were seeded on 24-well multidishes and grown in DMEM. After 24 hours of growth, the medium was replaced with fresh medium and a test compound (0.1-5 μM) was added from freshly made stock solutions, which were prepared in DMSO and diluted with DMEM. The final concentration of DMSO in the culture medium was 0.2%. Controls were performed using DMSO or medium alone. Forty-eight hours after addition of a test compound to the culture, the medium was removed and each well was rinsed with phosphate-buffered saline (PBS, 100 μL). The cells were then incubated with sterile 0.5% trypsin, 0.2% EDTA in PBS for 20 minutes at 37° C. The detached cells from each well were suspended in DMEM and dispersed as single cells by gentle pipetting through an Eppendorf pipette. Cell growth was determined directly by counting the keratinocytes on a Neubauer counting chamber using phase contrast microscopy. Inhibition of cell proliferation was calculated by a comparison of the mean value of the test compound (N=3) with the control (N=6-8) activity: (1-test compound/control)×100.

5-LO in bovine PMNL = target: T1, 5-LO in bovine PMNL (Bos taurus, UniProt F1MQ78); experiment: Inhibition of 5-lipoxygenase (5-HETE and LTB4 biosynthesis) in Ca-ionophore-stimulated bovine PMNL; type: cell-based; conditions: N = 3 or more
T1 construct: The purified PMNLs were suspended at a concentration of; endogenous in cells; host or cells: polymorphonuclear leukocytes isolated from bovine blood
T1 sequence (F1MQ78 1-674): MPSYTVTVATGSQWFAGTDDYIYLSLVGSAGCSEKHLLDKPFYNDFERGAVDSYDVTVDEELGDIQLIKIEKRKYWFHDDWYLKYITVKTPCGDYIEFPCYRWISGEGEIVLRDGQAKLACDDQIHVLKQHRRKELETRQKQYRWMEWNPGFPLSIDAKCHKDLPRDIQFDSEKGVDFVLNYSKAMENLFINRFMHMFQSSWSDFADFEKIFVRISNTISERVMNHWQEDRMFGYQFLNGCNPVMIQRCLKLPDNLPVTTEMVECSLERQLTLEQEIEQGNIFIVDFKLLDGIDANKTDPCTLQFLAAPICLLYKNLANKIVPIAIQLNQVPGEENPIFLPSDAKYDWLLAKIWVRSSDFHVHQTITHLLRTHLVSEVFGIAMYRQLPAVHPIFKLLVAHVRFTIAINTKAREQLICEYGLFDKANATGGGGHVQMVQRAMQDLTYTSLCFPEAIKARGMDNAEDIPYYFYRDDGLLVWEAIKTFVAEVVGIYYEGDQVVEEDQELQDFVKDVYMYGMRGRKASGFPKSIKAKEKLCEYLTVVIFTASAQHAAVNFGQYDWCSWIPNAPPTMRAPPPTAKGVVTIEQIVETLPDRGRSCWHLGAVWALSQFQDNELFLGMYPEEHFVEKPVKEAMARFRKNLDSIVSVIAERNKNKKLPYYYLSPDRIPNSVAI
Procedure: Briefly, PMNLs were prepared from sodium EDTA-anticoagulated bovine blood, essentially as described by Walstra, P. et al., (Biochem. Biophys. Acta, 795:499-503 (1984)). Contaminating platelets were removed by repeated centrifugations at 100 g for 20 minutes. […] Cell counts were conducted with a Sysmex micro cell counter CC-130. Preincubation was performed with 2.4 ml of the suspension and 10 μl of a DMSO stock solution of test compounds at the desired concentrations in phosphate buffered saline (PBS) or vehicle control (DMSO at final concentration of 0.4%) for 15 minutes at 37° C. in a shaking water bath at 50 rpm. […] The incubation mixture was held on ice bath for 20 minutes and then centrifuged at 4000 g for 5 minutes at 0° C. The supernatant was diluted with 5 ml of water and passed through a prewashed (10 ml of methanol and 5 ml of water, sequentially) octadecylsilane reversed phase cartridge (Baker). The eicosanoids were eluted with 3 ml of methanol, diluted with 3 ml of water and subjected to reversed phase HPLC analysis using a 250×4 mm column packed with Nucleosil C18 (7 μm particles; Bischoff, Leonberg, Germany). The isocratic elution conditions of LTB4 were tetrahydrofuran (THF)/methanol/water/acetic acid (25+30+45+0.1), adjusted to pH 5.5 with concentrated NH3, at a flow rate of 0.9 ml/min (Kontron 420 pump), monitored at 280 nm with a Kontron 735 LC UV detector. 5-HETE was monitored at 232 nm using methanol/water/acetic acid (77+23+0.1), pH 5.5 and a flow rate 1.0 ml/min. Data were recorded on a MacLab data acquisition system (WissTech, Germany) and analysis was performed using the application Peaks on an Apple Macintosh Quadra 700 computer. Integrated areas of the peaks were compared to a PGB2 internal standard and to external standards of authentic samples. Molar absorption coefficients of Samuelsson et al., Borgeat, P. and B. Samuelsson, (Proc. Natl. Acad. Sci. USA, 76:2148-2152 (1979)), were used for making calculations. Inhibition was calculated by a comparison of the mean value of test compound (n=3) with control (n=6-8) activity: (1-test compound/control)×100.
See Walstra, P. et al., Biochem Biophys. Acta, 795:499-503 (1984); and Dannhardt et al. J. Pharm. Pharmacol., 44:419-424 (1992). […] (Schroder, J. M., J. Invest. Dermatol., 87:624-629 (1986); Tanzer, et al., Arch. Pharm. (Weinheim), 324:841-846 (1991)).

Row | Structure (SMILES) | DD (deoxyribose degradation, malondialdehyde released) [1] | IC50 (HaCaT cells) | IC50 (5-LO in bovine PMNL)
1 | O=C(O)Cc1ccc2c(c1O)C(=O)c1c(O)cccc1C2 [IA, 9,10-Dihydro-1,8-dihydroxy-9-oxo-2-anthracenacetic acid, reference compound] | 3.74 ± 0.23 μmol of MDA/mmol | > 5 µM | 
2 | COC(=O)Cc1ccc2c(c1O)C(=O)c1c(O)cccc1C2 [IB, Methyl 9,10-Dihydro-1,8-dihydroxy-9-oxo-2-anthracenacetate] |  |  | > 30 µM
3 | O=C(Cc1ccc2c(c1O)C(=O)c1c(O)cccc1C2)NO [IC, N-Hydroxy-(9,10-dihydro-1,8-dihydroxy-9-oxo-2-anthracene)acetamide] | 1.89 ± 0.14 μmol of MDA/mmol |  | 
4 | O=C(O)CCc1ccc2c(c1O)C(=O)c1c(O)cccc1C2 [IIA, 3-(9,10-Dihydro-1,8-dihydroxy-9-oxo-2-anthracene) propionic acid, reference compound] | 2.67 ± 0.23 μmol of MDA/mmol | > 5 µM | 
5 | COC(=O)CCc1ccc2c(c1O)C(=O)c1c(O)cccc1C2 [IIB, Methyl 3-(9,10-Dihydro-1,8-dihydroxy-9-oxo-2-anthracene) propionate] |  |  | > 30 µM
6 | O=C(CCc1ccc2c(c1O)C(=O)c1c(O)cccc1C2)NO [IIC, N-Hydroxy-3-(9,10-dihydro-1,8-dihydroxy-9-oxo-2-anthracene)propionamide] | 1.67 ± 0.31 μmol of MDA/mmol | 1.3 µM | 
7 | O=C(O)CCCc1ccc2c(c1O)C(=O)c1c(O)cccc1C2 [IIIA, 4-(9,10-Dihydro-1,8-dihydroxy-9-oxo-2-anthracene) butanoic acid, reference compound] | 2.61 ± 0.38 μmol of MDA/mmol | > 5 µM | 
8 | O=C(CCCc1ccc2c(c1O)C(=O)c1c(O)cccc1C2)NO [IIIC, N-Hydroxy-4-(9,10-dihydro-1,8-dihydroxy-9-oxo-2-anthracene)butanamide] | 1.46 ± 0.02 μmol of MDA/mmol | 1.5 µM | 
9 | O=C1c2c(O)cccc2Cc2ccc(C(Cc3ccccc3)C(=O)O)c(O)c21 (stereo not shown) [IXA, 2-(9,10-Dihydro-1,8-dihydroxy-9-oxo-2-anthracene)-3-phenylpropionic acid] | 3.25 ± 0.45 μmol of MDA/mmol | > 5 µM | 
10 | O=C1c2c(O)cccc2Cc2ccc(C(Cc3ccccc3)C(=O)NO)c(O)c21 (stereo not shown) [IXC, N-Hydroxy-2-(9,10-dihydro-1,8-dihydroxy-9-oxo-2-anthracene)-3-phenylpropionamide] |  | 1.5 µM | 
11 | CN(O)C(=O)C(Cc1ccccc1)c1ccc2c(c1O)C(=O)c1c(O)cccc1C2 (stereo not shown) [IXD, N-Hydroxy-N-methyl-2-(9,10-dihydro-1,8-dihydroxy-9-oxo-2-anthracene)-3-phenylpropionamide] | 1.68 ± 0.13 μmol of MDA/mmol | 0.9 µM | 
12 | CC(C(=O)O)c1ccc2c(c1O)C(=O)c1c(O)cccc1C2 (stereo not shown) [VIIA, 2-(9,10-Dihydro-1,8-dihydroxy-9-oxo-2-anthracene) propionic acid] |  | > 5 µM | 
13 | COC(=O)C(C)c1ccc2c(c1O)C(=O)c1c(O)cccc1C2 (stereo not shown) [VIIB, Methyl 2-(9,10-Dihydro-1,8-dihydroxy-9-oxo-2-anthracene) propionate] |  |  | > 30 µM
14 | CC(C)C(C(=O)NO)c1ccc2c(c1O)C(=O)c1c(O)cccc1C2 (stereo not shown) [VIIIC, N-Hydroxy-2-(9,10-dihydro-1,8-dihydroxy-9-oxo-2-anthracene)-3-methylbutanamide] | 1.66 ± 0.08 μmol of MDA/mmol | 1.5 µM | 
15 | O=C(O)c1ccc(Cc2ccc3c(c2O)C(=O)c2c(O)cccc2C3)cc1 [XIA, 4-[(9,10-Dihydro-1,8-dihydroxy-9-oxo-2-anthracene)methyl]benzoic acid, reference compound] |  |  | 2 µM
16 | COC(=O)c1ccc(Cc2ccc3c(c2O)C(=O)c2c(O)cccc2C3)cc1 [XIB, Methyl 4-[(9,10-Dihydro-1,8-dihydroxy-9-oxo-2-anthracene)methyl]benzoate, reference compound] |  |  | > 30 µM
17 | O=C(NO)c1ccc(Cc2ccc3c(c2O)C(=O)c2c(O)cccc2C3)cc1 [XIC, N-Hydroxy-4-[(9,10-dihydro-1,8-dihydroxy-9-oxo-2-anthracene)methyl]benzamide] |  | 1.4 µM | 
18 | CN(O)C(=O)c1ccc(Cc2ccc3c(c2O)C(=O)c2c(O)cccc2C3)cc1 [XID, N-Hydroxy-N-methyl-4-[(9,10-dihydro-1,8-dihydroxy-9-oxo-2-anthracene)methyl]benzamide] | 0.97 ± 0.03 μmol of MDA/mmol |  | 
19 | O=C(O)c1ccc(C(=O)c2ccc3c(c2O)C(=O)c2c(O)cccc2C3)cc1 [XIIA, 4-[(9,10-Dihydro-1,8-dihydroxy-9-oxo-2-anthracene)oxomethyl]benzoic acid] | 1.80 ± 0.14 μmol of MDA/mmol | > 5 µM | 
